Results as given in patent US20110195505A1, “BACTERIAL STRAINS FOR BUTANOL PRODUCTION” (priority 2009, published 2011).
Marks after values point to notes of the source that are not given here.

Columns and labels:
[1] = tested on: BP63 (L. plantarum PN0512ΔpyrFΔfabZ1); experiment: Fatty acid supplements supporting growth of the fabZ1 mutant; format: cell-based; conditions: fatty acid supplied at 80 mg/L; overnight incubation, OD600
Procedure: With 100 or 200 mg/liter of oleic acid the growth of BP63 was equivalent to that of the fabZ1^+ control strain, BP15. […] Thus, we conclude that fabZ1 in L. plantarum has the same function as FabN in E. faecalis (Wang, H. and Cronan, J. E. 2004. Functional replacement of the FabA and FabB proteins of Escherichia coli fatty acid synthesis by Enterococcus faecalis FabZ and FabF homologs. J. Biol. Chem. 279, 34489-95). To further test the range of fatty acid supplements that support growth of the fabZ1 mutant, several other fatty acids were supplied at 80 mg/L to the semi-synthetic LAB medium as described above. BP63 and the parental control BP15 were inoculated from the working stocks. After overnight incubation, the OD600 was measured. The growth of BP15 was not inhibited by any of the fatty acids tested. The Table 9 below summarizes the results for the fabZ1 mutant strain, BP63.

[2] = tested on: L. plantarum strain PN0512; experiment: FAME analysis of membrane lipids of stearic acid fed cultures; format: cell-based, Lactobacillus plantarum
Procedure: The membrane lipids were extracted by modified Bligh and Dyer protocol (Can. J. Biochem. Physiol. (1959) 37:911-17). The cell pellet prepared as described above was suspended in a mixture of 0.5 ml CHCl3 and 1 ml CH3OH, and transferred to a 13×100 mm tube with a screw top cap. The cap was screwed on about ¾ of the way (i.e., not tight), and the tube was incubated at 40° C. for 30 min. The tube was cooled and an additional 0.5 ml CHCl3 and 1 ml H2O were added the mixture. […] The two phases were equilibrated by vortexing. The two phases were allowed to separate; then the lower CHCl3 layer was removed and transferred to another 13×100 mm tube with a screw top cap. With the cap removed, the CHCl3 was evaporated under a stream of N2. Methyl esters of the fatty acids in the residue were then formed using one of the following procedures.
1 ml freshly made 1.0 M CH3ONa in CH3OH was added to the tubes containing lipid samples extracted by the Bligh and Dyer method as described above. The caps were placed on tubes, screwed on about ¾ of the way (i.e., not tight), then the tubes were heated at 60° C. for 30 minutes. The mixture was chilled in ice bath and 1 ml of 1.0 N HCl was added to the solution in the tubes. The pH of the resulting solution was checked with pH paper to make sure a pH of 7 or lower had been reached. 0.5 ml hexane was added into the test tube and mixed well by vortexing. The tubes were allowed to sit for a few minutes until two phases formed. The top hexane layer was removed and placed in a separate tube for storage until analysis, which was done by GC/FID and/or GC/MS. 2 μl of the hexane layer was injected into an Agilent GC (model 6890)/MS (model 5973). For routine samples a Supelco Equity-1 column (15 m×0.25 mm×0.25 μm film thickness; catalog #28045-U) was used with an FID detector (GC/FID). When an unknown peak needed to be identified, the same column was used with an Agilent MSD detector (GC/MS). When samples requiring difficult separations that were impossible to achieve on a 15 m column were analyzed (e.g., the separation of oleic from elaidic acid), a Supelco S-2380 column (100 m×0.25 mm×0.25 μm film thickness; catalog #24317) was used.
For preparation of samples for FAME analysis, the working stock was used to inoculate 40 ml of medium containing free fatty acids and the cultures were grown overnight. The cell pellet was harvested by centrifugation and was washed twice with phosphate buffered saline (PBS, Bio-Rad Laboratories, Hercules, Calif.) and 5 g/l BSA, then two more times with PBS. Cell pellets were stored at −80° C. until analyzed by FAME using a transesterification protocol, which quantifies fatty acids that have been incorporated in membrane lipids, but not free fatty acids associated with the cell membrane. The FAME analysis is described by Christie (1993) (In Advances in Lipid Methodology—Two, pp. 69-111, Ed. W. W. Christie, Oily Press, Dundee).
Cultures of Lactobacillus plantarum strain PN0512 were grown in media containing stearic acid along with control cultures (with no added fatty acids to the media), as described in General Methods. The membrane composition was analyzed by FAME analysis as described in General Methods as well. The results of FAME analyses shown in Table 6 indicate that stearic acid (C18:0), when added to the growth medium of a culture of strain PN0512, was incorporated into the cell membrane thereby resulting in a substantial increase of the amount of stearic fatty acid in the cell membrane.

[3] = tested on: L. plantarum strain PN0512; experiment: Growth yield (OD600) in isobutanol, stearic acid fed and unfed cultures; format: cell-based, Lactobacillus plantarum; conditions: for OD600 fed Stearic: stearic acid 50 mg per liter, 25 hours, 30° C.
Procedure: For growth yield experiments, 5 ml of medium with test fatty acids (10-500 mg per liter) and varying concentrations of isobutanol in 15 ml screw cap tubes was inoculated with 12.5 μl of the working stock giving an initial OD600 of 0.012. The caps were tightly sealed and incubated at 30° C. on a roller drum for 20 to 26 hours, at which time 1.0 ml was removed and OD600 was measured with a blank of medium amended with the fatty acid. All solvent concentrations are reported as % (w/v).
Growth of L. plantarum cultures in the media described in General Methods and containing varying concentrations of isobutanol was measured and compared with the cultures fed (supplemented with) stearic acid at a final concentration of 50 mg per liter of medium. Cultures were prepared as described in General Methods.

CCCCCCCC/C=C/CCCCCCCC(=O)O [Elaidic]
Supports growth of BP63 [1]: YES

CCCCCCCC/C=C\CCCCCCCCCCCC(=O)O [Erucic]
Supports growth of BP63 [1]: Very slight growth

CCCCC/C=C\C/C=C\CCCCCCCC(=O)O [Linoleic]
Supports growth of BP63 [1]: YES

CCCCCCCCCCCCCC(=O)O [Myristic, Tetradecanoic Acid]
Supports growth of BP63 [1]: no

CCCCCCCCCCCCCCCC(=O)O [Palmitic, Hexadecanoic Acid]
Supports growth of BP63 [1]: no

CCCCCC/C=C\CCCCCCCC(=O)O [Palmitoleic]
Supports growth of BP63 [1]: YES

CCCCCCCCCCCCCCCCCC(=O)O [Stearic Acid, Octadecanoic Acid]
Membrane Fatty Acid Effect (stearic acid fed)/(stearic acid not fed), C16:0 ([2]; ratio of molar %): 0.52 | Membrane Fatty Acid Effect (stearic acid fed)/(stearic acid not fed), C16:1 ([2]; ratio of molar %): 1.30 | Membrane Fatty Acid Effect (stearic acid fed)/(stearic acid not fed), C18:0 ([2]; ratio of molar %): 33.2 | Membrane Fatty Acid Effect (stearic acid fed)/(stearic acid not fed), C18:1, cis ([2]; ratio of molar %): 0.78 | Membrane Fatty Acid Effect (stearic acid fed)/(stearic acid not fed), cyc-C19:0 ([2]; ratio of molar %): 1.23 | Membrane Fatty Acid Content, C16:0 ([2]; stearic acid (C18:0) fed): 14.1 molar % | Membrane Fatty Acid Content, C16:1 ([2]; stearic acid (C18:0) fed): 10.0 molar % | Membrane Fatty Acid Content, C18:0 ([2]; stearic acid (C18:0) fed): 16.6 molar % | Membrane Fatty Acid Content, C18:1, cis ([2]; stearic acid (C18:0) fed): 34.4 molar % | Membrane Fatty Acid Content, cyc-C19:0 ([2]; stearic acid (C18:0) fed): 25.0 molar % | increase of molar % of stearic acid in the cell membrane ([2]; with stearic acid feeding): more than 30 fold | increase of molar ratio saturated/unsaturated fatty acids ([2]; with stearic acid feeding): 16% | molar ratio of saturated fatty acids (C16:0 and C18:0) to unsaturated fatty acids (C16:1 and C18:1, cis) ([2]; with stearic acid feeding (0.53 without)): 0.69 | OD600 Ratio OD600fed/OD600unfed control ([3]; 0 % w/v isobutanol): 1.08 | OD600 fed Stearic ([3]; 0 % w/v isobutanol): 1.452 | OD600 Ratio OD600fed/OD600unfed control ([3]; 2.3 % w/v isobutanol): 1.18 | OD600 fed Stearic ([3]; 2.3 % w/v isobutanol): 0.860 | OD600 Ratio OD600fed/OD600unfed control ([3]; 2.5 % w/v isobutanol): 1.23 | OD600 fed Stearic ([3]; 2.5 % w/v isobutanol): 0.422 | OD600 Ratio OD600fed/OD600unfed control ([3]; 2.7 % w/v isobutanol): 1.57^b | OD600 fed Stearic ([3]; 2.7 % w/v isobutanol): 0.206 | OD600 Ratio OD600fed/OD600unfed control ([3]; 2.9 % w/v isobutanol): 1.92 | OD600 fed Stearic ([3]; 2.9 % w/v isobutanol): 0.098 | growth yield of stearic acid fed cultures compared with control cultures ([3]; all tested concentrations of isobutanol): greater | Supports growth of BP63 [1]: no

CCCCCCCC/C=C\CCCCCCCCCC(=O)O [cis 11-eicosenoic]
Supports growth of BP63 [1]: YES

CCCCCC/C=C\CCCCCCCCCCCC(=O)O [cis 13 eicosenoic]
Supports growth of BP63 [1]: no

CCCCC/C=C\C/C=C\CCCCCCCCCC(=O)O [cis-11,14-Eicosadienoic]
Supports growth of BP63 [1]: Partial growth

CCCCCC/C=C\CCCCCCCCCC(=O)O [cis-Vaccenic]
Supports growth of BP63 [1]: YES

CCCCCCCC[C@@H]1C[C@@H]1CCCCCCCC(=O)O [dihydrosterculic, Dihydrosterculic acid]
Supports growth of BP63 [1]: YES
